Laboratory results as given in the NIST ThermoML archive (doi:10.1021/je5010214).

Details: Liquid, Vibrating tube method

CC(C)CO [2-methyl-1-propanol]
Details | mass density [kg/m3]
283.15 K, 89.4 kPa | 809.726
283.15 K, 478.2 kPa | 810.123
283.15 K, 489.9 kPa | 810.142
283.15 K, 930.2 kPa | 810.437
283.15 K, 1027.3 kPa | 810.557
283.15 K, 2172.1 kPa | 811.348
283.15 K, 2992.9 kPa | 811.865
283.15 K, 4993.8 kPa | 813.245
283.15 K, 6906.9 kPa | 814.669
283.15 K, 8995.7 kPa | 816.167
283.15 K, 10003 kPa | 816.885
283.15 K, 12183 kPa | 818.287
283.15 K, 14910 kPa | 820.439
283.15 K, 17915 kPa | 822.056
283.15 K, 20110 kPa | 823.875
283.15 K, 22168 kPa | 825.177
283.15 K, 24886 kPa | 826.625
283.15 K, 27713 kPa | 828.29
283.15 K, 30148 kPa | 829.717
283.15 K, 32117 kPa | 830.745
283.15 K, 33086 kPa | 831.522
283.15 K, 33288 kPa | 831.507
283.15 K, 34077 kPa | 832.073
283.15 K, 35107 kPa | 832.469
283.15 K, 38030 kPa | 834.322
283.15 K, 44591 kPa | 837.752
283.15 K, 54994 kPa | 843.308
283.15 K, 57756 kPa | 844.723
283.15 K, 59886 kPa | 845.575
283.15 K, 61822 kPa | 846.524
283.15 K, 64894 kPa | 848.158
283.16 K, 289.9 kPa | 810.056
283.16 K, 39967 kPa | 835.34
283.16 K, 41406 kPa | 835.909
283.16 K, 48034 kPa | 839.7
283.16 K, 49830 kPa | 840.462
283.16 K, 51952 kPa | 841.796
283.16 K, 66072 kPa | 848.566
288.15 K, 85.3 kPa | 806.159
288.15 K, 351.1 kPa | 806.381
288.15 K, 718.6 kPa | 806.519
288.15 K, 928.3 kPa | 806.632
288.15 K, 1132.3 kPa | 807.006
288.15 K, 1931.6 kPa | 807.42
288.15 K, 3433.9 kPa | 808.429
288.15 K, 5023.9 kPa | 809.62
288.15 K, 6893.9 kPa | 810.983
288.15 K, 8406.4 kPa | 812.175
288.15 K, 12498 kPa | 814.345
288.15 K, 13061 kPa | 815.035
288.15 K, 15159 kPa | 815.414
288.15 K, 16159 kPa | 816.818
288.15 K, 17078 kPa | 817.715
288.15 K, 19062 kPa | 818.283
288.15 K, 20120 kPa | 819.399
288.15 K, 21983 kPa | 820.3
288.15 K, 22948 kPa | 821.319
288.15 K, 24955 kPa | 821.837
288.15 K, 31002 kPa | 825.774
288.15 K, 36056 kPa | 828.477
288.15 K, 38602 kPa | 829.859
288.15 K, 40698 kPa | 831.363
288.15 K, 42984 kPa | 832.313
288.15 K, 44991 kPa | 833.694
288.15 K, 46862 kPa | 834.848
288.15 K, 49740 kPa | 835.692
288.15 K, 53748 kPa | 837.321
288.15 K, 55203 kPa | 839.369
288.15 K, 60810 kPa | 841.135
288.15 K, 65611 kPa | 844.144
288.16 K, 549.3 kPa | 806.494
288.16 K, 9959.1 kPa | 813.184
288.16 K, 27092 kPa | 823.174
288.16 K, 29078 kPa | 824.509
288.16 K, 33729 kPa | 826.936
288.16 K, 57016 kPa | 840.129
288.16 K, 62338 kPa | 843.086
293.15 K, 63.4 kPa | 802.054
293.15 K, 194.5 kPa | 802.316
293.15 K, 662.6 kPa | 802.599
